Measurements: US20090182039A1, “Choline Salt Crystal of Azulene Compound” (priority 2005, published 2009)

Key:
[1] = Storage stability test; type: physicochemical
Description: (2-hydroxyethyl)trimethylammonium-4-(azulene-2-ylmethyl)-2-β-D-glucopyranosylphenolate (46 g) was put into a polyethylene bag, and the opening of the bag was closed with a bead band. The bag was put into another polyethylene bag containing silica gel (12 g). The opening of the bag was closed with a bead band. The bag was placed in a metal can, which was tightly sealed and stored in a dark place at 40° C. and 75% RH for six months. Apart from this, (2-hydroxyethyl)trimethylammonium-4-(azulene-2-ylmethyl)-2-β-D-glucopyranosylphenolate (10 g) was put into an open brown container and stored in a dark place at 40° C. and 75% RH for six months.

[2] = Crystal form stability (DSC analysis / X-ray powder diffraction); type: physicochemical; conditions: behaviour on heating, drying or at room temperature
Description: X-ray powder diffraction and differential scanning calorimeter analysis (DSC analysis) were conducted under the following conditions. “MAC Science […]22” equipped with a copper X-ray tube was used under the conditions of a current of 40 mA, a tube voltage of […], a sampling width of 0.020°, a scanning rate of 3°/min, wavelength of 1.54056 Å, and measurement angles of diffraction range of (2θ): 3 or 5 to 40°. “TA Instrument TA 5000” was used at a temperature from room temperature to 300° C. (10° C./min) and a N2 feed rate of 50 ml/min using an aluminum sampling pan.

[3] = target: T1, Human Na+-glucose cotransporter (human SGLT2) (Homo sapiens, UniProt P31639); assay: Inhibition of methyl-α-D-glucopyranoside intake in CHO cells stably expressing human SGLT2; type: cell-based; conditions: stated as equivalent to the value of Example 75 of Patent Document 1
T1 construct: expressed in transfected cells; host or cells: CHO-K1
T1 sequence (P31639 1-672): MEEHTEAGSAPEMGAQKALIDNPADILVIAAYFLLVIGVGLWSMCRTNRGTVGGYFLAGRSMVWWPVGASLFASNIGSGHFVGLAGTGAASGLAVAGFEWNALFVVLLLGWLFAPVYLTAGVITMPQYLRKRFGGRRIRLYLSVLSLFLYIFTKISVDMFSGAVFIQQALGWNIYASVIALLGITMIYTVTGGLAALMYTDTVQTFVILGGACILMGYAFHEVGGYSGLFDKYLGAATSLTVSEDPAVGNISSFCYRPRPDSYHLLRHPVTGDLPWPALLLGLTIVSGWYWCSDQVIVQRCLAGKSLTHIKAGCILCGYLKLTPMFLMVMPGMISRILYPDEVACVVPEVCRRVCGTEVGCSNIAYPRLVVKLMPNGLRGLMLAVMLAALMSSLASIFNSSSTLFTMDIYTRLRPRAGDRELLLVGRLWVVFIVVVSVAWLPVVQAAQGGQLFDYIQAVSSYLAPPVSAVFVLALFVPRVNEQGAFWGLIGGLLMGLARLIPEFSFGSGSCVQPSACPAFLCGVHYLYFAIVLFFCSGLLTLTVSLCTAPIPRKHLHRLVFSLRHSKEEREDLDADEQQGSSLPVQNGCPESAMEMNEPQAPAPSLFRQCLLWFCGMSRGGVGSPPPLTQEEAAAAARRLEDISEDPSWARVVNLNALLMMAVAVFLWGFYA
Description: [Test for Confirming Effect of Inhibiting Activity of Human Na^+-Glucose Cotransporter (Human SGLT2)]
First, single-stranded cDNA was reversely transcripted from total RNA originating from human kidney (manufactured by BD Biosciences Clontech) using a Superscript II (manufactured by Invitrogen Corporation) and a random hexamer. Second, using the cDNA as a template, a DNA fragment encoding human SGLT2 (Wells R. G. et al., Am. J. Physiol., 1992, 263 (3) F459) was amplified by a PCR reaction using Pyrobest DNA polymerase (manufactured by Takara Bio Inc.) (A primer where a Hind III site and an EcoRI site were inserted into the 5′ side and the 3′ side of the DNA fragment, respectively, was used).
The amplified fragment was cloned into a pCR2.1-Topo vector using a Topo TA Cloning Kit (manufactured by Invitrogen Corporation), and the cloned vector was transfected into a competent cell of Escherichia coli JM109. Ampicillin-resistant clones were cultured in a LB medium containing ampicillin (100 mg/l). A plasmid was purified from the cultured Escherichia coli using the method of Hanahan (see Maniatis et al., “Molecular Cloning”). […]

[4] = 40° C., 75% RH, brown glass container, open, dark place, 2 months
[5] = 40° C., 75% RH, brown glass container, open, dark place, 4 months
[6] = 40° C., 75% RH, brown glass container, open, dark place, 6 months
[7] = 40° C., 75% RH, silica gel/polyethylene bags (double) in a metal can, dark place, 2 months
[8] = 40° C., 75% RH, silica gel/polyethylene bags (double) in a metal can, dark place, 4 months
[9] = 40° C., 75% RH, silica gel/polyethylene bags (double) in a metal can, dark place, 6 months
[10] = at the start of storing, 0 month

Structure (SMILES): OC[C@H]1O[C@@H](c2cc(Cc3cc4cccccc-4c3)ccc2O)[C@H](O)[C@@H](O)[C@@H]1O [Example 2, (2-hydroxyethyl)trimethylammonium 4-(azulen-2-ylmethyl)-2-β-D-glucopyranosylphenolate hydrate]
- Analogous compounds (%) (HPCL) Maximum of each compound [1, 4]: 0.25%
- Analogous compounds (%) (HPCL) Total amount [1, 4]: 0.58%
- Quantitative analysis (%) (HPCL) [1, 4]: 99.2%
- Water content (%) [1, 4]: 3.78%
- Analogous compounds (%) (HPCL) Maximum of each compound [1, 5]: 0.24%
- Analogous compounds (%) (HPCL) Total amount [1, 5]: 0.57%
- Quantitative analysis (%) (HPCL) [1, 5]: 99.9%
- Water content (%) [1, 5]: 3.59%
- Analogous compounds (%) (HPCL) Maximum of each compound [1, 6]: 0.24%
- Analogous compounds (%) (HPCL) Total amount [1, 6]: 0.43%
- Quantitative analysis (%) (HPCL) [1, 6]: 98.8%
- Water content (%) [1, 6]: 3.61%

Structure (SMILES): OC[C@H]1O[C@@H](c2cc(Cc3cc4cccccc-4c3)ccc2O)[C@H](O)[C@@H](O)[C@@H]1O [Comparative Example 8, (1S)-1,5-anhydro-1-[5-(azulen-2-ylmethyl)-2-hydroxyphenyl]-D-glucitol anhydride crystal-2]
- Stability of the crystal form [2]: stable only at a high temperature and could not be isolated at room temperature

Structure (SMILES): OC[C@H]1O[C@@H](c2cc(Cc3cc4cccccc-4c3)ccc2O)[C@H](O)[C@@H](O)[C@@H]1O [Comparative Example 5, (1S)-1,5-anhydro-1-[5-(azulen-2-ylmethyl)-2-hydroxyphenyl]-D-glucitol hydrate crystal-1]
- Stability of the crystal form [2]: transformed into anhydride crystal-3 of azulene compound A

Structure (SMILES): [Na+].[O-]c1ccc(Cc2cc3cccccc-3c2)cc1[C@@H]1O[C@H](CO)[C@@H](O)[C@H](O)[C@H]1O [Comparative Example 1, sodium 4-(azulen-2-ylmethyl)-2-β-D-glucopyranosylphenolate]
- Stability of the crystal form [2]: change form due to dissociation of volatile components at a low temperature

Structure (SMILES): [Li+].[O-]c1ccc(Cc2cc3cccccc-3c2)cc1[C@@H]1O[C@H](CO)[C@@H](O)[C@H](O)[C@H]1O [Comparative Example 3, lithium 4-(azulen-2-ylmethyl)-2-β-D-glucopyranosylphenolate]
- Stability of the crystal form [2]: change form due to dissociation of volatile components at a low temperature

Structure (SMILES): [K+].[O-]c1ccc(Cc2cc3cccccc-3c2)cc1[C@@H]1O[C@H](CO)[C@@H](O)[C@H](O)[C@H]1O [Comparative Example 2, potassium 4-(azulen-2-ylmethyl)-2-β-D-glucopyranosylphenolate]
- Stability of the crystal form [2]: change form due to dissociation of volatile components at a low temperature

Structure (SMILES): OC[C@H]1O[C@@H](c2cc(Cc3cc4cccccc-4c3)ccc2O)[C@H](O)[C@@H](O)[C@@H]1O [Example 1, (2-hydroxyethyl)trimethylammonium 4-(azulen-2-ylmethyl)-2-β-D-glucopyranosylphenolate]
- Analogous compounds (%) (HPCL) Maximum of each compound [1, 7]: 0.26%
- Analogous compounds (%) (HPCL) Total amount [1, 7]: 0.66%
- Quantitative analysis (%) (HPCL) [1, 7]: 99.5%
- Water content (%) [1, 7]: 0.29%
- Analogous compounds (%) (HPCL) Maximum of each compound [1, 8]: 0.26%
- Analogous compounds (%) (HPCL) Total amount [1, 8]: 0.62%
- Quantitative analysis (%) (HPCL) [1, 8]: 99.0%
- Water content (%) [1, 8]: 0.22%
- Analogous compounds (%) (HPCL) Maximum of each compound [1, 9]: 0.27%
- Analogous compounds (%) (HPCL) Total amount [1, 9]: 0.44%
- Quantitative analysis (%) (HPCL) [1, 9]: 99.5%
- Water content (%) [1, 9]: 0.19%
- Storage stability (conclusion from Table 3) ([1]; 40° C., 75% RH, six months): stable compounds
- Analogous compounds (%) (HPCL) Maximum of each compound [1, 10]: 0.26%
- Analogous compounds (%) (HPCL) Total amount [1, 10]: 0.61%
- Quantitative analysis (%) (HPCL) [1, 10]: 99.0%
- Water content (%) [1, 10]: 0.39%
- IC50 [3]: ~8.9 nM

Structure (SMILES): OC[C@H]1O[C@@H](c2cc(Cc3cc4cccccc-4c3)ccc2O)[C@H](O)[C@@H](O)[C@@H]1O [Comparative Example 7, (1S)-1,5-anhydro-1-[5-(azulen-2-ylmethyl)-2-hydroxyphenyl]-D-glucitol anhydride crystal-1]
- Stability of the crystal form [2]: stable only at high temperature and cannot be isolated at room temperature
